Measured values taken from patent publication US5464838A, “Aminocarboxylic acid derivatives having antiallergic/antiasthmatic effect and a process for their preparation” (Asta Medica Aktiengesellschaft, priority 1992, dated 1995).

Key:
[1] = test system: histamine-precontracted trachea; test: histamine-precontracted trachea model (after Foster)
[2] = test system: allergically induced bronchospasm; test: allergically induced bronchospasm in the guinea pig (modified Konzett-Rossler bronchospasmolysis); assay type: in vivo; conditions: Cavia porcellus, iv, 0.25 h, test substance intravenously, ovalbumin-triggered bronchial constriction 15 minutes later, read-out: inhibitory effect (ID50) in allergically induced bronchospasm
Text: The compounds of the invention are characterized by good antiallergic and antiasthmatic effect.
The test model used to determine these values was a modification of the bronchospasmolysis experiment described by Konzett and Rossler (1).
The animals were narcoticized with urethane (1.5 g/kg i.p.). Trachea and v. jugularis were exposed by means of a skin incision. A tracheal cannula (Our own construction) was fitted to permit the intravenous application of propanolol, ovalbumin and a test substances, and which also permitted artificial respiration (Starling Pump, Braun Melsungen) and measurement of the intratracheal pressure (pressure uptake: Venous Pressure Transducer, Statham, type W 101 connected to a bridge amplifier, Hellige and Multicorder 6-channel ink plotter, Watanabe, type: WA 621-1). The entire preparation was completed after about 15 minutes. During the subsequent experiment the animals were ventilated with 40 breaths per minute and a volume of about 1 ml room air/100 g body weight. The intratracheal pressure was adjusted by this means to 10-15 cm water column. After a habituation phase of about 30 minutes, the test substances were administered intravenously. Propanolol was administered 10 minutes later. […] The resultant increase in intratracheal pressure was recorded on the plotter for at least 15 minutes.

Compound	IC50 [1]	ED50 [2]
CNCCC(CCC(=O)O)n1nc(Cc2ccc(Cl)cc2)c2ccccc2c1=O (stereo not shown) [Example 3, 4-(4-chlorobenzyl)-2-(5-methylamino-1-carboxy-3-pentyl)1(2H) -phthalazinone]	3.86 µM	9.9 µg/kg
CNCCCC(CC(=O)O)n1nc(Cc2ccc(Cl)cc2)c2ccccc2c1=O (stereo not shown) [Example 6, 4-(4-chlorobenzyl)-2-[5-methylamino-1-carboxy-t-2-pentyl]-1(2H) -phthalazinone]	35.5 µM	0.8 µg/kg
